What was measured:
Format in all cases: functional
Streptococcus pneumoniae [1] = assay: Antibacterial activity against […] resistance selected Streptococcus pneumoniae 19 with after 14 passages by macrodilution method
Streptococcus pneumoniae [2] = assay: Antibacterial activity against […] resistance selected Streptococcus pneumoniae 1076 with PDF D176N mutation after 39 passages by macrodilution method
Streptococcus pneumoniae [3] = assay: Antibacterial activity against […] resistance selected Streptococcus pneumoniae 1077 with PDF D176N mutation after 24 passages by macrodilution method
Streptococcus pneumoniae [4] = assay: Antibacterial activity against […] resistance selected Streptococcus pneumoniae 3665 with after 27 passages by macrodilution method
Streptococcus pneumoniae [5] = assay: Antibacterial activity against […] resistance selected Streptococcus pneumoniae 3243 with PDF G69C, Q172H mutation after 20 passages by macrodilution method
Streptococcus pneumoniae [6] = assay: Antibacterial activity against […] resistance selected Streptococcus pneumoniae 3676 with PDF R135C mutation after 20 passages by macrodilution method
Streptococcus pneumoniae [7] = assay: Antibacterial activity against […] resistance selected Streptococcus pneumoniae 24 with PDF G139F mutation after 27 passages by macrodilution method
Streptococcus pneumoniae [8] = assay: Antibacterial activity against […] resistance selected Streptococcus pneumoniae 2527 after 27 passages by macrodilution method
Streptococcus pneumoniae [9] = assay: Antibacterial activity against […] resistance selected Streptococcus pneumoniae 37 with PDF G69R, P76R mutation after 50 passages by macrodilution method
Streptococcus pneumoniae [10] = assay: Antibacterial activity against […] resistance selected Streptococcus pneumoniae 3413 after 14 passages by macrodilution method
Streptococcus pneumoniae [11] = assay: Antibacterial activity against […] resistance selected Streptococcus pneumoniae 3009 with PDF G69V mutation after 10 antibiotic-free subcultures by macrodilution method
Streptococcus pneumoniae [12] = assay: Antibacterial activity against […] resistance selected Streptococcus pneumoniae 1076 with PDF D176N mutation after 10 antibiotic-free subcultures by macrodilution method
Streptococcus pneumoniae [13] = assay: Antibacterial activity against […] resistance selected Streptococcus pneumoniae 1077 with PDF D176N mutation after 10 antibiotic-free subcultures by macrodilution method
Streptococcus pneumoniae [14] = assay: Antibacterial activity against […] resistance selected Streptococcus pneumoniae 3665 with after 10 antibiotic-free subcultures by macrodilution method
Streptococcus pneumoniae [15] = assay: Antibacterial activity against […] resistance selected Streptococcus pneumoniae 3243 with PDF G69C, Q172H mutation after 10 antibiotic-free subcultures by macrodilution method
Streptococcus pneumoniae [16] = assay: Antibacterial activity against […] resistance selected Streptococcus pneumoniae 3676 with PDF R135C mutation after 10 antibiotic-free subcultures by macrodilution method
Streptococcus pneumoniae [17] = assay: Antibacterial activity against […] resistance selected Streptococcus pneumoniae 19 with after 10 antibiotic-free subcultures by macrodilution method
Streptococcus pneumoniae [18] = assay: Antibacterial activity against […] resistance selected Streptococcus pneumoniae 24 with PDF G139F mutation after 10 antibiotic-free subcultures by macrodilution method
Streptococcus pneumoniae [19] = assay: Antibacterial activity against […] resistance selected Streptococcus pneumoniae 2527 after 10 antibiotic-free subcultures by macrodilution method
Streptococcus pneumoniae [20] = assay: Antibacterial activity against Streptococcus pneumoniae 3009 by macrodilution method
Streptococcus pneumoniae [21] = assay: Antibacterial activity against Streptococcus pneumoniae 1076 by macrodilution method
Streptococcus pneumoniae [22] = assay: Antibacterial activity against Streptococcus pneumoniae 1077 by macrodilution method
Streptococcus pneumoniae [23] = assay: Antibacterial activity against Streptococcus pneumoniae 3665 by macrodilution method
Streptococcus pneumoniae [24] = assay: Antibacterial activity against Streptococcus pneumoniae 3243 by macrodilution method
Streptococcus pneumoniae [25] = assay: Antibacterial activity against Streptococcus pneumoniae 3676 by macrodilution method
Streptococcus pneumoniae [26] = assay: Antibacterial activity against Streptococcus pneumoniae 19 by macrodilution method
Streptococcus pneumoniae [27] = assay: Antibacterial activity against Streptococcus pneumoniae 24 by macrodilution method
Streptococcus pneumoniae [28] = assay: Antibacterial activity against Streptococcus pneumoniae 2527 by macrodilution method
Streptococcus pneumoniae [29] = assay: Antibacterial activity against Streptococcus pneumoniae 37 by macrodilution method
Streptococcus pneumoniae [30] = assay: Antibacterial activity against Streptococcus pneumoniae 3413 by macrodilution method
Streptococcus pneumoniae [31] = assay: Antibacterial activity against […] resistance selected Streptococcus pneumoniae 3009 with PDF G69V mutation after 14 passages by macrodilution method
Streptococcus pneumoniae [32] = assay: Antibacterial activity against […] resistance selected Streptococcus pneumoniae 37 with PDF G69R, P76R mutation after 10 antibiotic-free subcultures by macrodilution method
Streptococcus pneumoniae [33] = assay: Antibacterial activity against […] resistance selected Streptococcus pneumoniae 3413 after 10 antibiotic-free subcultures by macrodilution method
Streptococcus pneumoniae [34] = assay: Antibacterial activity against moxifloxacin resistance selected Streptococcus pneumoniae 24 with GyrA S81Y, GyrB P413S and ParC S79F mutation after 10 antibiotic-free subcultures by macrodilution method
Streptococcus pneumoniae [35] = assay: Antibacterial activity against azithromycin resistance selected Streptococcus pneumoniae 2527 after 10 antibiotic-free subcultures by macrodilution method
Streptococcus pneumoniae [36] = assay: Antibacterial activity against gatifloxacin resistance selected Streptococcus pneumoniae 37 with GyrA S81Y, GyrB E474K and ParC S79Y mutation after 10 antibiotic-free subcultures by macrodilution method
Streptococcus pneumoniae [37] = assay: Antibacterial activity against Streptococcus pneumoniae assessed as period of suppression of bacterial growth
Streptococcus pneumoniae [38] = assay: Antibacterial activity against levofloxacin resistance selected Streptococcus pneumoniae 3009 with GyrA S81Y and ParC S79Y mutation after 10 antibiotic-free subcultures by macrodilution method
Streptococcus pneumoniae [39] = assay: Antibacterial activity against gatifloxacin resistance selected Streptococcus pneumoniae 3009 after 10 antibiotic-free subcultures by macrodilution method
Streptococcus pneumoniae [40] = assay: Antibacterial activity against moxifloxacin resistance selected Streptococcus pneumoniae 3009 with GyrA S81F and ParC D83N mutation after 10 antibiotic-free subcultures by macrodilution method
Streptococcus pneumoniae [41] = assay: Antibacterial activity against clarithromycin resistance selected Streptococcus pneumoniae 3009 after 10 antibiotic-free subcultures by macrodilution method
Streptococcus pneumoniae [42] = assay: Antibacterial activity against moxifloxacin resistance selected Streptococcus pneumoniae 1076 with ParC S79Y mutation after 10 antibiotic-free subcultures by macrodilution method
Streptococcus pneumoniae [43] = assay: Antibacterial activity against gatifloxacin resistance selected Streptococcus pneumoniae 1076 with ParC S79Y mutation after 10 antibiotic-free subcultures by macrodilution method
Streptococcus pneumoniae [44] = assay: Antibacterial activity against azithromycin resistance selected Streptococcus pneumoniae 1077 with 23S rRNA A2058G mutation after 10 antibiotic-free subcultures by macrodilution method
Streptococcus pneumoniae [45] = assay: Antibacterial activity against moxifloxacin resistance selected Streptococcus pneumoniae 3665 with GyrA S81Y mutation after 10 antibiotic-free subcultures by macrodilution method
Streptococcus pneumoniae [46] = assay: Antibacterial activity against clarithromycin resistance selected Streptococcus pneumoniae 3665 after 10 antibiotic-free subcultures by macrodilution method
Streptococcus pneumoniae [47] = assay: Antibacterial activity against moxifloxacin resistance selected Streptococcus pneumoniae 3676 with GyrA E85G, GyrB S478I and ParC S79Y mutation after 10 antibiotic-free subcultures by macrodilution method
Streptococcus pneumoniae [48] = assay: Antibacterial activity against clarithromycin resistance selected Streptococcus pneumoniae 3676 after 10 antibiotic-free subcultures by macrodilution method
Streptococcus pneumoniae [49] = assay: Antibacterial activity against moxifloxacin resistance selected Streptococcus pneumoniae 3243 after 10 antibiotic-free subcultures by macrodilution method
Streptococcus pneumoniae [50] = assay: Antibacterial activity against azithromycin resistance selected Streptococcus pneumoniae 3243 with L22 insertion 93SFRPRA94 mutation after 10 antibiotic-free subcultures by macrodilution method
Streptococcus pneumoniae [51] = assay: Antibacterial activity against clarithromycin resistance selected Streptococcus pneumoniae 3243 with 23S rRNA A2059T mutation after 10 antibiotic-free subcultures by macrodilution method
Streptococcus pneumoniae [52] = assay: Antibacterial activity against moxifloxacin resistance selected Streptococcus pneumoniae 19 with GyrA S81F mutation after 10 antibiotic-free subcultures by macrodilution method
Streptococcus pneumoniae [53] = assay: Antibacterial activity against levofloxacin resistance selected Streptococcus pneumoniae 19 with GyrA S81Y and ParC D83Y mutation after 10 antibiotic-free subcultures by macrodilution method
Streptococcus pneumoniae [54] = assay: Antibacterial activity against clarithromycin resistance selected Streptococcus pneumoniae 3009 after 25 passages by macrodilution method
Streptococcus pneumoniae [55] = assay: Antibacterial activity against clarithromycin resistance selected Streptococcus pneumoniae 3665 after 26 passages by macrodilution method
Streptococcus pneumoniae [56] = assay: Antibacterial activity against clarithromycin resistance selected Streptococcus pneumoniae 3676 after 44 passages by macrodilution method
Streptococcus pneumoniae [57] = assay: Antibacterial activity against clarithromycin resistance selected Streptococcus pneumoniae 3243 with 23S rRNA A2059T mutation after 41 passages by macrodilution method

CCCC[C@H](CN(O)C=O)C(=O)N1CCC[C@H]1C(=O)Nc1ccc(F)c[n+]1[O-]
1 µg/mL: MIC (Streptococcus pneumoniae [14]) | MIC (Streptococcus pneumoniae [15]) | MIC (Streptococcus pneumoniae [20]) | MIC (Streptococcus pneumoniae [29]) | MIC (Streptococcus pneumoniae [33]) | MIC (Streptococcus pneumoniae [41]) | MIC (Streptococcus pneumoniae [53])
16 µg/mL: MIC (Streptococcus pneumoniae [9])
1 h: Post Antibiotic Effe (Streptococcus pneumoniae [37])
8 µg/mL: MIC (Streptococcus pneumoniae [2]) | MIC (Streptococcus pneumoniae [3])
0.03 µg/mL: MIC (Streptococcus pneumoniae [49])
0.25 µg/mL: MIC (Streptococcus pneumoniae [21]) | MIC (Streptococcus pneumoniae [23]) | MIC (Streptococcus pneumoniae [26]) | MIC (Streptococcus pneumoniae [28]) | MIC (Streptococcus pneumoniae [30]) | MIC (Streptococcus pneumoniae [43]) | MIC (Streptococcus pneumoniae [44]) | MIC (Streptococcus pneumoniae [46])
0.5 µg/mL: MIC (Streptococcus pneumoniae [19]) | MIC (Streptococcus pneumoniae [22]) | MIC (Streptococcus pneumoniae [24]) | MIC (Streptococcus pneumoniae [27]) | MIC (Streptococcus pneumoniae [35]) | MIC (Streptococcus pneumoniae [38]) | MIC (Streptococcus pneumoniae [40]) | MIC (Streptococcus pneumoniae [45]) | MIC (Streptococcus pneumoniae [50]) | MIC (Streptococcus pneumoniae [51]) | MIC (Streptococcus pneumoniae [52])
4 µg/mL: MIC (Streptococcus pneumoniae [1]) | MIC (Streptococcus pneumoniae [4]) | MIC (Streptococcus pneumoniae [5]) | MIC (Streptococcus pneumoniae [7]) | MIC (Streptococcus pneumoniae [8]) | MIC (Streptococcus pneumoniae [13])
> 16 µg/mL: MIC (Streptococcus pneumoniae [11]) | MIC (Streptococcus pneumoniae [31])
2 µg/mL: MIC (Streptococcus pneumoniae [6]) | MIC (Streptococcus pneumoniae [10]) | MIC (Streptococcus pneumoniae [12]) | MIC (Streptococcus pneumoniae [16]) | MIC (Streptococcus pneumoniae [17]) | MIC (Streptococcus pneumoniae [18]) | MIC (Streptococcus pneumoniae [32]) | MIC (Streptococcus pneumoniae [36]) | MIC (Streptococcus pneumoniae [39])
0.125 µg/mL: MIC (Streptococcus pneumoniae [25]) | MIC (Streptococcus pneumoniae [34]) | MIC (Streptococcus pneumoniae [42]) | MIC (Streptococcus pneumoniae [47]) | MIC (Streptococcus pneumoniae [48])

CC[C@H]1OC(=O)[C@H](C)[C@@H](O[C@H]2C[C@@](C)(OC)[C@@H](O)[C@H](C)O2)[C@H](C)[C@@H](O[C@@H]2O[C@H](C)C[C@H](N(C)C)[C@H]2O)[C@](C)(OC)C[C@@H](C)C(=O)[C@H](C)[C@@H](O)[C@]1(C)O [CLARITHROMYCIN]
8 µg/mL: MIC (Streptococcus pneumoniae [46])
3.8 h: Post Antibiotic Effe (Streptococcus pneumoniae [37])
> 128 µg/mL: MIC (Streptococcus pneumoniae [54]) | MIC (Streptococcus pneumoniae [34]) | MIC (Streptococcus pneumoniae [36]) | MIC (Streptococcus pneumoniae [42]) | MIC (Streptococcus pneumoniae [43]) | MIC (Streptococcus pneumoniae [44]) | MIC (Streptococcus pneumoniae [52]) | MIC (Streptococcus pneumoniae [53])
2 µg/mL: MIC (Streptococcus pneumoniae [23]) | MIC (Streptococcus pneumoniae [39]) | MIC (Streptococcus pneumoniae [45])
64 µg/mL: MIC (Streptococcus pneumoniae [41])
32 µg/mL: MIC (Streptococcus pneumoniae [56])
4 µg/mL: MIC (Streptococcus pneumoniae [25]) | MIC (Streptococcus pneumoniae [40]) | MIC (Streptococcus pneumoniae [47])
0.25 µg/mL: MIC (Streptococcus pneumoniae [57]) | MIC (Streptococcus pneumoniae [51])
0.5 µg/mL: MIC (Streptococcus pneumoniae [38]) | MIC (Streptococcus pneumoniae [50])
0.004 µg/mL: MIC (Streptococcus pneumoniae [49])
16 µg/mL: MIC (Streptococcus pneumoniae [20]) | MIC (Streptococcus pneumoniae [55]) | MIC (Streptococcus pneumoniae [35]) | MIC (Streptococcus pneumoniae [48])
0.016 µg/mL: MIC (Streptococcus pneumoniae [24])

CO/N=C(\C(=O)N[C@@H]1C(=O)N2C(C(=O)O)=C(CSc3nc(=O)c(O)nn3C)CS[C@H]12)c1csc(N)n1 [CEFTRIAXONE]
0.125 µg/mL: MIC (Streptococcus pneumoniae [50]) | MIC (Streptococcus pneumoniae [51])
≤ 0.008 µg/mL: MIC (Streptococcus pneumoniae [49])
2 µg/mL: MIC (Streptococcus pneumoniae [35]) | MIC (Streptococcus pneumoniae [36]) | MIC (Streptococcus pneumoniae [52]) | MIC (Streptococcus pneumoniae [53])
1.3 h: Post Antibiotic Effe (Streptococcus pneumoniae [37])
0.016 µg/mL: MIC (Streptococcus pneumoniae [38]) | MIC (Streptococcus pneumoniae [39]) | MIC (Streptococcus pneumoniae [41]) | MIC (Streptococcus pneumoniae [42]) | MIC (Streptococcus pneumoniae [43])
1 µg/mL: MIC (Streptococcus pneumoniae [34])
0.03 µg/mL: MIC (Streptococcus pneumoniae [40]) | MIC (Streptococcus pneumoniae [44]) | MIC (Streptococcus pneumoniae [46]) | MIC (Streptococcus pneumoniae [47]) | MIC (Streptococcus pneumoniae [48])
0.06 µg/mL: MIC (Streptococcus pneumoniae [45])

C=CC1=C(C(=O)O)N2C(=O)[C@@H](NC(=O)/C(=N\O)c3csc(N)n3)[C@H]2SC1
0.06 µg/mL: MIC (Streptococcus pneumoniae [38]) | MIC (Streptococcus pneumoniae [40]) | MIC (Streptococcus pneumoniae [42]) | MIC (Streptococcus pneumoniae [44]) | MIC (Streptococcus pneumoniae [48]) | MIC (Streptococcus pneumoniae [49])
0.25 µg/mL: MIC (Streptococcus pneumoniae [46]) | MIC (Streptococcus pneumoniae [51])
4 µg/mL: MIC (Streptococcus pneumoniae [36]) | MIC (Streptococcus pneumoniae [53])
1.6 h: Post Antibiotic Effe (Streptococcus pneumoniae [37])
16 µg/mL: MIC (Streptococcus pneumoniae [35])
0.125 µg/mL: MIC (Streptococcus pneumoniae [39]) | MIC (Streptococcus pneumoniae [41]) | MIC (Streptococcus pneumoniae [43]) | MIC (Streptococcus pneumoniae [45]) | MIC (Streptococcus pneumoniae [47]) | MIC (Streptococcus pneumoniae [50])
2 µg/mL: MIC (Streptococcus pneumoniae [34]) | MIC (Streptococcus pneumoniae [52])

Reference: ChEMBL document CHEMBL1142186, “Multistep resistance selection and postantibiotic-effect studies of the antipneumococcal activity of LBM415 compared to other agents” (2007)
